Data set [1] deals with CCRF-CEM. Kind of data set: Reversal of cytotoxicity by added metabolites (hypoxanthine, AICA, thymidine, leucovorin). The class given is cell-based, human.
Data set [2] deals with CCRF-CEM. Kind of data set: Representative inhibition values against CCRF-CEM cell cultures. The class given is cell-based. The conditions noted are these: Homo sapiens.
The next data set deals with tumor cells. The experiment in a line: In vivo antitumor activity in mice inoculated with tumor cells, eight daily i.p. doses. More on the design: species or system strain DBA/2. The settings on record: for % Inhibition / Tumor Weight: Table V, eight daily doses; for Tumor Weight: mean ± standard deviation. The protocol: Female mice, strain DBA/2, were inoculated with tumor cells. Treatment with the test compounds began the day following inoculation. The treatment consisted of eight daily doses i.p. (intraperitoneal) of either Compounds A and C for eight consecutive days. Tumor size was measured on the day following the last day of treatment to determine the inhibitory effect of the test compounds on tumor growth.

In data set [3] the test system is Cem human lymphoblastic leukemia cells. Kind of data set: Reversal studies to identify the point of enzymatic inhibition (Example 11). The class given is cell-based. The settings on record: from reversal with 100 µM hypoxanthine and/or 5 µM thymidine. How it is done: The mechanism of action of each compound was determined through further tests employing so-called "reversal" studies. These studies supplied compounds or precursors which, alone or together, identified the specific point of enzymatic inhibition. • (a) Hypoxanthine - Hypoxanthine will reverse the inhibitory effects of a compound if the compound functions as an inhibitor of purine de novo synthesis. The availability of hypoxanthine thus allows cells to bypass purine de novo synthesis. • (b) Thymidine - Thymidine alone will reverse the inhibitory effects of a compound if the compound functions as a specific inhibitor of thymidylate synthetase. • (c) Hypoxanthine and Thymidine - If a compound is determined in (a) to not be an inhibitor of purine de novo synthesis, and in (b) to not be an inhibitor of thymidilate synthetase, then a reversal study utilizing hypoxanthine and thymidine, in combination, will determine whether the compound can produce inhibition of both pathways. Thus if this combination reverses the inhibitory effects of a compound, the compound most likely functions as an inhibitor of dihydrofolate reductase (involved in both purine and pyrimidine biosynthesis).
In each case, the basic procedure outlined above was followed, modified in that 250 µl of the reversal compound [or of each reversal compound in […]] was added to the test wells, and the amount of serumless media added to each test well was decreased [or entirely eliminated in (b)] by the same amount. The reversal compounds were prepared as 8X stock solutions in phosphate buffered saline (sterile filtered through a 0.2 µ acrodisc filter - Gelman) so that 250 µl of the stock solution would yield a final concentration of 100 µM hypoxanthine and/or 5 µM thymidine.

Data set [4] shares this test system. The experiment in a line: Inhibition of growth of Cem human lymphoblastic leukemia cells, 72 hours incubation, Coulter Counter particle count (Example 11). The class given is cell-based. The settings on record: Homo sapiens, CCRF-CEM, 72 hours. The protocol: Each of the compounds was dissolved in 100% dimethylsulfoxide. Dilutions of each compound were prepared to yield a range of test concentrations as hereinafter indicated.
Cem human lymphoblastic leukemia cells are grown in RPMI 1640 media (MABio), supplemented with 10% dialyzed fetal bovine serum (Gibco) at 37°C in humidified atmospheric conditions of 95% air and 5% CO₂. The cells are grown in static suspension (T-flask, Corning) maintained in log phase at a concentration of 3-7 x 10⁵ cells/ml.
(i) 10 µl of a test compound is placed in a well (Costar 24 well clusters). This step is repeated for each test concentration of the compounds. (ii) 500 µl of serum-free media is added to each well. (iii) A sterile bottle containing RPMI 1640 media supplemented with 10% dialyzed fetal bovine serum, 16 mM hepes and 8 mM mops buffers and 3 x 10⁴ cells/ml is placed on a magnetic stirrer. A Wheaton peristaltic pump is used to deliver 1.5 ml of this cell suspension to each well. The resulting final volume delivered to each well is 2.0 ml at a cellular concentration of […]. (iv) The cluster wells are incubated at 37°C in a humidified incubator (95% air, 5% CO₂) for 72 hours. (v) After the incubation period, measurements of each well are taken using the ZB1 Coulter Counter particle counter and the IC₅₀ (concentration inhibiting 50% of cellular growth) is determined. (vi) The results of this test are as follows: Table I

Values after ≈ are worked out from the molar mass of the structure shown. “Also recorded” adds a separate entry of the source.

In the case of `Nc1nc2[nH]cc(CCc3ccc(C(=O)N[C@@H](CCC(=O)O)C(=O)O)cc3)c2c(=O)[nH]1`, the “Cytotoxicity reversed by addition of aminoimidazolecarboxamide (AICA)” value with CCRF-CEM [1] (addition of aminoimidazolecarboxamide (AICA)) was “not reversed”. The “Cytotoxicity reversed by addition of hypoxanthine” value in the data set with CCRF-CEM [1] (addition of hypoxanthine) was “not reversed”. Also, the “Cytotoxicity reversed by addition of thymidine” value in the data set with CCRF-CEM [1] (addition of thymidine) is “reversed”. Besides, the IC50 in the data set on CCRF-CEM [2] was 0.004 µg/mL (≈ 0.00936 µM).

As for `Nc1nc(O)c2c(n1)NCC2CCc1ccc(C(=O)NC(CCC(=O)O)C(=O)O)cc1` (centres unmarked) [Compound A, reference compound], the “% Inhibition” value in the data set with tumor cells (dose 3.125 mg/kg i.p.) is on record as 0%; in the data set with tumor cells (dose 6.25 mg/kg i.p.) it was 0%; with tumor cells (dose 12.5 mg/kg i.p.) it was 0%; in the data set on tumor cells (dose 25 mg/kg i.p.), 12%; with tumor cells (dose 50 mg/kg i.p.) it was 19%; in the data set on tumor cells (dose 100 mg/kg i.p.), 0%. In the data set on tumor cells (dose 200 mg/kg i.p.), the “% Inhibition” value amounted to 0%. Further, the “Tumor Weight” value in the data set with tumor cells (dose 3.125 mg/kg i.p.) is recorded as 2825 ± 822 mg; with tumor cells (dose 6.25 mg/kg i.p.), 2719 ± 413 mg; in the data set on tumor cells (dose 12.5 mg/kg i.p.) it was 3360 ± 703 mg; with tumor cells (dose 25 mg/kg i.p.), 2121 ± 410 mg; with tumor cells (dose 50 mg/kg i.p.), 1935 ± 498 mg; in the data set on tumor cells (dose 100 mg/kg i.p.) it was 3447 ± 747 mg. In addition, the “Tumor Weight” value with tumor cells (dose 200 mg/kg i.p.) is recorded as 2525 ± 694 mg. Further, the “inhibitory effect on tumor growth in vivo” value in the data set with tumor cells (overall assessment in words) was “essentially no inhibitory effect; also recorded: inactive”. Besides, the “mechanism of action (point of enzymatic inhibition)” value in data set [3] is given as “appear to inhibit TS”. Moreover, the activity at 0.045 µg/mL in data set [4] (concentration 0.045 µg/ml, read-out: Cellular Growth (%)) is 100%. Also, the activity at 0.137 µg/mL in data set [4] (concentration 0.137 µg/ml, read-out: Cellular Growth (%)) came out at 63.9%. The activity at 0.411 µg/mL in data set [4] (concentration 0.411 µg/ml, read-out: Cellular Growth (%)) was found to be 21.5%. The activity at 1.23 µg/mL in data set [4] (concentration 1.23 µg/ml, read-out: Cellular Growth (%)) came to 16.1%. In data set [4] (concentration 3.7 µg/ml, read-out: Cellular Growth (%)), the activity at 3.7 µg/mL is 15.3%. Also, the activity at 11.1 µg/mL in data set [4] (concentration 11.1 µg/ml, read-out: Cellular Growth (%)) amounted to 16.2%. The activity at 33.3 µg/mL in data set [4] (concentration 33.3 µg/ml, read-out: Cellular Growth (%)) turned out to be 15.5%. In addition, the activity at 100 µg/mL in data set [4] (concentration 100.0 µg/ml, read-out: Cellular Growth (%)) stood at 13.1%. Further, the IC50 in data set [4] (concentration inhibiting 50% of cellular growth, read-out: relative overall in vitro inhibitory concentration (IC50)) stood at 0.2 µg/mL (≈ 0.466 µM).

Values taken from patent EP0432677B1, “N-(pyrrolo[2,3-d]pyrimidin-3-ylacyl)-glutamic acid derivatives” (THE TRUSTEES OF PRINCETON UNIVERSITY, priority 1989, dated 1991).
